TGI data for 13 molecules are collected here from PubChem BioAssay (NCI).

Test systems include CAKI-1 renal; HCT-15 colon; MDA-MB-231 breast; MDA-N; NCI-H522 lung; NCI/ADR-RES ovarian; OVCAR-3 ovarian; SF-539 CNS; SK-MEL-28 melanoma; SW-620 colon.
Common to all, as to assay: NCI anticancer screen, dose series, 48 h

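How tested: cells in 96-well plates exposed to compound for 48 hours at five concentrations. Definition used: TGI = concentration required for complete inhibition of growth.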

As for `COc1cc(C)cc2c1c(=O)c1ccccc1n2C`, the TGI with CAKI-1 renal, in the assay on HCT-15 colon, with MDA-MB-231 breast, in the assay on MDA-N, with NCI-H522 lung and in the assay with NCI/ADR-RES ovarian was greater than 100 µM throughout. The TGI with OVCAR-3 ovarian is greater than 100 µM; in the assay with SF-539 CNS, 38.4 µM; in the assay with SK-MEL-28 melanoma it was greater than 100 µM; with SW-620 colon, greater than 100 µM.

Consider `O=C(N/N=C/c1ccc([N+](=O)[O-])o1)c1ccc(C(=O)N/N=C/c2ccc([N+](=O)[O-])o2)cc1`, for which the TGI in the assay on CAKI-1 renal was greater than 100 µM; in the assay with HCT-15 colon, greater than 100 µM; in the assay on MDA-MB-231 breast it was greater than 100 µM; in the assay on MDA-N, 50.2 µM; in the assay on NCI-H522 lung, greater than 100 µM; with NCI/ADR-RES ovarian, greater than 100 µM. Moreover, the TGI is 73.9 µM with OVCAR-3 ovarian, 38.3 µM in the assay with SF-539 CNS, 75.7 µM in the assay on SK-MEL-28 melanoma and greater than 100 µM with SW-620 colon.

Consider `Cc1nc2c(nc1C)-c1c(c3c(n1C)C(=O)CCC3)C(=O)C2=O`, for which the TGI with CAKI-1 renal was 0.286 µM; in the assay with HCT-15 colon, 1.36 µM; in the assay with MDA-MB-231 breast it was 0.803 µM; in the assay on MDA-N, 0.322 µM; with NCI-H522 lung, 1.6 µM; in the assay on NCI/ADR-RES ovarian it was 2.05 µM. The TGI worked out at 0.646 µM in the assay on OVCAR-3 ovarian, 2.51 µM with SF-539 CNS, 1.88 µM in the assay with SK-MEL-28 melanoma and 0.534 µM with SW-620 colon.

On to `Cc1cc(N=Nc2c(O)ccc3ccccc23)ccc1N=Nc1cccc([N+](C)(C)C)c1`, for which the TGI was 62.9 µM in the assay on CAKI-1 renal; greater than 84.4 µM in the assay on HCT-15 colon; 55.3 µM with MDA-MB-231 breast; greater than 100 µM in the assay on MDA-N; greater than 26.1 µM in the assay with NCI-H522 lung; greater than 100 µM in the assay on NCI/ADR-RES ovarian. For the same molecule, the TGI was determined as 41 µM in the assay with OVCAR-3 ovarian, 22.3 µM in the assay on SF-539 CNS, 62.3 µM with SK-MEL-28 melanoma and 46.9 µM in the assay with SW-620 colon.

Turning to `CCN(CC)CCNC(=O)c1ccc(I)cc1`, the TGI in the assay with CAKI-1 renal, in the assay with HCT-15 colon, with MDA-MB-231 breast, with MDA-N, with NCI-H522 lung and with NCI/ADR-RES ovarian was greater than 100 µM each time. Also, the TGI with OVCAR-3 ovarian, in the assay on SF-539 CNS, in the assay on SK-MEL-28 melanoma and in the assay on SW-620 colon was greater than 100 µM in each case.

Consider `Cn1c(-c2cccs2)cc(-c2cccs2)c1-c1ccco1`, for which the TGI in the assay on CAKI-1 renal was greater than 38.1 µM; with HCT-15 colon, greater than 100 µM; in the assay on MDA-MB-231 breast, greater than 100 µM; with MDA-N, greater than 100 µM; in the assay with NCI-H522 lung, 88.2 µM; in the assay with NCI/ADR-RES ovarian, greater than 100 µM. Further, the TGI with OVCAR-3 ovarian, in the assay on SF-539 CNS, in the assay on SK-MEL-28 melanoma and in the assay on SW-620 colon was greater than 100 µM in each case.

Regarding `CCOC(=O)c1sc(N/N=C2\NC(=O)/C(=C/c3ccc([N+](=O)[O-])cc3)S2)nc1C`, the TGI amounted to 60.5 µM in the assay with CAKI-1 renal; 48.5 µM in the assay with HCT-15 colon; 49.2 µM in the assay on MDA-MB-231 breast; 56.2 µM with MDA-N; 40.9 µM with NCI-H522 lung; 66.1 µM in the assay with NCI/ADR-RES ovarian. Also, the TGI was 49.9 µM with OVCAR-3 ovarian, 40.7 µM with SF-539 CNS, greater than 100 µM in the assay with SK-MEL-28 melanoma and greater than 100 µM in the assay on SW-620 colon.

On to `COc1cc(C2SC(N)=Nc3c2c(C)nn3C(=O)c2ccccc2O)ccc1O` (configuration not stated), for which the TGI with CAKI-1 renal, with HCT-15 colon, in the assay with MDA-MB-231 breast, with MDA-N, with NCI-H522 lung and in the assay on NCI/ADR-RES ovarian was greater than 10 µM each time. Besides, the TGI was greater than 10 µM in the assay with OVCAR-3 ovarian, greater than 2.31 µM in the assay on SF-539 CNS, greater than 10 µM with SK-MEL-28 melanoma and greater than 10 µM in the assay with SW-620 colon.

Turning to `N#CC(=C1CCCCC1)c1nc2ccccc2o1`, the TGI is greater than 100 µM in the assay with CAKI-1 renal; greater than 100 µM in the assay on HCT-15 colon; greater than 100 µM in the assay with MDA-MB-231 breast; greater than 100 µM in the assay with MDA-N; 60.6 µM with NCI-H522 lung; greater than 100 µM in the assay with NCI/ADR-RES ovarian. The TGI in the assay on OVCAR-3 ovarian was greater than 100 µM; with SF-539 CNS it was 64.4 µM; with SK-MEL-28 melanoma it was greater than 100 µM.

In the case of `[N-]=[N+]=Nc1c(C=O)c(=O)n(-c2ccccc2)c2ccccc12`, the TGI in the assay with CAKI-1 renal was 27.7 µM; with HCT-15 colon, 46.4 µM; in the assay with MDA-MB-231 breast, greater than 100 µM; in the assay with MDA-N it was greater than 100 µM; in the assay on NCI/ADR-RES ovarian it was 88.5 µM; in the assay with OVCAR-3 ovarian, 32.4 µM. Further, the TGI is greater than 100 µM in the assay with SF-539 CNS, 35.3 µM in the assay with SK-MEL-28 melanoma and 7.53 µM in the assay with SW-620 colon.

In the case of `CCCCSC1=N/C(=C\c2ccc(N(C)C)cc2)C(NN)=N1`, the TGI with CAKI-1 renal, in the assay with HCT-15 colon, with MDA-MB-231 breast, in the assay with MDA-N, with NCI-H522 lung and in the assay with NCI/ADR-RES ovarian was greater than 100 µM throughout. The TGI in the assay on OVCAR-3 ovarian, with SK-MEL-28 melanoma and in the assay with SW-620 colon was greater than 100 µM in each case.

On to `O=C1NC(N2CCCCC2)=N/C1=C\c1cccs1`, for which the TGI with CAKI-1 renal, in the assay on HCT-15 colon, in the assay with MDA-MB-231 breast, with MDA-N, in the assay with NCI-H522 lung and with NCI/ADR-RES ovarian was greater than 100 µM each time. The TGI with OVCAR-3 ovarian, in the assay with SF-539 CNS, in the assay on SK-MEL-28 melanoma and in the assay on SW-620 colon was greater than 100 µM throughout.

Consider `CN(C)Cc1cc(C(C)(C)C)ccc1-c1ccc(C(C)(C)C)cc1CN(C)C`, for which the TGI in the assay on CAKI-1 renal, in the assay with HCT-15 colon, with MDA-MB-231 breast, in the assay with MDA-N, in the assay on NCI-H522 lung and in the assay on NCI/ADR-RES ovarian was greater than 100 µM throughout. For the same molecule, the TGI in the assay on OVCAR-3 ovarian, in the assay with SF-539 CNS, with SK-MEL-28 melanoma and in the assay on SW-620 colon was greater than 100 µM in each case.
